Reference: patent USRE31731E, “Herbicidal 4-trifluoromethyl-4-nitrodiphenyl ethers” (priority 1978, dated 1984)

Legend:
Type in all cases: in vivo
Monocots [1] = test: Herbicidal activity, postemergence, monocot weeds (Table II); details: post-emergence, 336 h, about 2 weeks, read-out: % control (percent of plants killed); for pest or weed control at 2241.7 g/ha: 2 lb./A.; for pest or weed control at 4483.4 g/ha: 4 lb./A.
Method: (§1) Using the procedure described below, diphenyl ethers were evaluated for control of the following weeds: […]
(§2) barnyardgrass (Echinochloa crusgalli) crabgrass (Digitaria spp.) nutsedge (Cyperus esculentus)
(§3) At 2 and 4 pounds per acre:
(§4) **Bermudagrass (Cynodon dactylon)
(§5) *downy brome (Bromus tectorum) foxtail (Setaria faberii)
(§6) Johnsongrass (Sorghum halepense) […]
(§7) quackgrass (Agropyron repens)
(§8) *ryegrass (Lolium perenne)
(§9) *yellow millet (Panicum miliaceum)
(§10) The following test procedure is employed. Seeds of selected crops and weeds are planted in soil in flats. For preemergence tests, the flats are treated with the test compound immediately after the planting. For postemergence tests, the seeds are allowed to germinate, and after 2 weeks the flats are treated with the test compound. The compound to be evaluated is dissolved in acetone, diluted with water, and sprayed over the flats using a carrier volume equivalent to 50 gallons per acre at the rate of application (pounds per acre, lb/A.) specified in the tables. About 2 weeks after the application of the test compound, the state of growth of the plants is observed and the phytotoxic effect of the compound is evaluated. Table II gives the average percent control achieved by the test compounds in terms of the percent of the plants which are killed by the compounds.

Dicots [2] = test: Herbicidal activity, preemergence, dicot weeds (Table II); details: pre-emergence, 336 h, about 2 weeks, read-out: % control (percent of plants killed); for pest or weed control at 2241.7 g/ha: 2 lb./A.; for pest or weed control at 4483.4 g/ha: 4 lb./A.
Method: as §1
(§11) bindweed (Convolvulus arvensis) curly dock (Remex crispus) velvetleaf (Abutilon theophrasti) wild mustard (Brassica haber)
(§12) At 2 and 4 pounds per acre: […]
(§13) cocklebur (Xanthium pensylvanicum)
(§14) **coffeeweed (Sesbania macrocarpa)
(§15) *curly dock (Rumex crispus)
(§16) *lambsquarters (Chenopodium album) morningglory (Ipomoea purpurea)
(§17) *pigweed (Amaranthus retroflexus)
(§18) **ragweed (Ambrosia artemisiifolia)
(§19) *smartweed (Polygonum pensylvanicum)
(§20) **tomato (Lycopersicon esculentum)
(§21) *wild carrot (Daucus carota)
(§22) *wild mustard (Brassica haber)
as §10

soybeans = test: Crop tolerance, soybeans; details: preemergence; 50% or less kill of crop at rates giving more than 50% kill of weeds
Method: as §10
(§23) Following the general test procedure of Example 73, diphenyl ethers are evaluated for significant tolerance (as shown by 50% or less kill of the test crop at levels of application which give more than 50% kill of many or all of the weeds of Example 73) towards some or all of the following common agronomic crops (not all compounds tested against all crops): alfalfa, snapbeans, corn, cotton, cucumbers, peanuts, rape, rice, safflower, soybeans, tomatoes, and wheat.

rice = test: Crop tolerance, rice; details: 50% or less kill of crop at rates giving more than 50% kill of weeds
Method: as §10, §23

Monocots [3] = test: Herbicidal activity, preemergence, monocot weeds (Table II); details: pre-emergence, 336 h, about 2 weeks, read-out: % control (percent of plants killed); for pest or weed control at 2241.7 g/ha: 2 lb./A.; for pest or weed control at 4483.4 g/ha: 4 lb./A.
Method: as §1, §2, §3, §4, §5, §6, §7, §8, §9, §10

corn = test: Crop tolerance, corn; details: 50% or less kill of crop at rates giving more than 50% kill of weeds
Method: as §10, §23

Dicots [4] = test: Herbicidal activity, postemergence, dicot weeds (Table II); details: post-emergence, 336 h, about 2 weeks, read-out: % control (percent of plants killed); for pest or weed control at 2241.7 g/ha: 2 lb./A.; for pest or weed control at 4483.4 g/ha: 4 lb./A.
Method: as §1, §11, §12, §13, §14, §15, §16, §17, §18, §19, §20, §21, §22, §10

peanuts = test: Crop tolerance, peanuts; details: 50% or less kill of crop at rates giving more than 50% kill of weeds
Method: as §10, §23

wheat = test: Crop tolerance, wheat; details: 50% or less kill of crop at rates giving more than 50% kill of weeds
Method: as §10, §23

[5] = postemergence or on transplanted rice

| Structure (SMILES) | pest or weed control at 2241.7 g/ha (Monocots [1]) [%] | pest or weed control at 4483.4 g/ha (Monocots [1]) [%] | pest or weed control at 2241.7 g/ha (Dicots [2]) [%] | pest or weed control at 4483.4 g/ha (Dicots [2]) [%] | Tolerance to soybeans (soybeans) | Tolerance to rice (rice; [5]) | pest or weed control at 2241.7 g/ha (Monocots [3]) [%] | pest or weed control at 4483.4 g/ha (Monocots [3]) [%] | Tolerance to corn (corn; preemergence) | pest or weed control at 2241.7 g/ha (Dicots [4]) [%] | pest or weed control at 4483.4 g/ha (Dicots [4]) [%] | Tolerance to peanuts (peanuts; postemergence) | Tolerance to wheat (wheat; postemergence) | Tolerance to wheat (wheat; preemergence) | Tolerance to corn (corn; postemergence) | Tolerance to peanuts (peanuts; preemergence) | Tolerance to rice (rice; preemergence) |
| --- | --- | --- | --- | --- | --- | --- | --- | --- | --- | --- | --- | --- | --- | --- | --- | --- | --- |
| O=[N+]([O-])c1ccc(Oc2ccc(C(F)(F)F)cc2Cl)cc1OCC(F)(F)F [Example 11] | 100 | 82 | 99 | 98 | Tolerance | Tolerance | 88 | 81 | Tolerance | 100 | 99 |  |  |  |  |  |  |
| CC(=O)Oc1cc(Oc2ccc(C(F)(F)F)cc2Cl)ccc1[N+](=O)[O-] [Example 18, 2-Chloro-α,α,α-trifluoro-p-tolyl-3-acetoxy-4-nitrophenyl ether] | 28 | 28 | 100 | 100 | Tolerance | Tolerance | 99 | 67 |  | 98 | 86 | Tolerance | Tolerance | Tolerance | Tolerance |  |  |
| CCNc1cc(Oc2ccc(C(F)(F)F)cc2Cl)ccc1[N+](=O)[O-] [Example 19, 2-Chloro-α,α,α-trifluoro-p-tolyl-3-ethylamino-4-nitrophenyl ether] | 94 | 84 | 91 | 96 | Tolerance |  | 77 | 91 | Tolerance | 97 | 98 |  |  | Tolerance | Tolerance | Tolerance | Tolerance |
| CCN(CC)c1cc(Oc2ccc(C(F)(F)F)cc2Cl)ccc1[N+](=O)[O-] [Example 21, 2-Chloro-α,α,α-trifluoro-p-tolyl-3-diethylamino-4-nitrophenyl ether] | 90 | 74 | 90 | 99 | Tolerance |  | 79 | 91 | Tolerance | 94 | 96 |  | Tolerance |  | Tolerance | Tolerance | Tolerance |
| Cc1cc(Oc2ccc(C(F)(F)F)cc2Cl)ccc1[N+](=O)[O-] [Example 36, 2-chloro-α,α,α-trifluoro-p-tolyl-4-nitro-m-tolyl ether] | 94 | 87 | 100 | 100 |  |  | 100 | 93 |  | 98 | 100 | Tolerance | Tolerance |  | Tolerance | Tolerance |  |
| O=C(O)c1cc(Oc2ccc(C(F)(F)F)cc2Cl)ccc1[N+](=O)[O-] [Example 48, 2-Chloro-α,α,α-trifluoro-p-tolyl-3-carboxy-4-nitrophenyl ether] | 84 | 75 | 100 | 97 | Tolerance | Tolerance | 100 | 99 |  | 97 | 100 | Tolerance | Tolerance |  |  | Tolerance |  |
| COC(=O)c1cc(Oc2ccc(C(F)(F)F)cc2Cl)ccc1[N+](=O)[O-] [Example 49, 2-chloro-α,α,α-trifluoro-p-tolyl-3-carbomethoxy-4-nitrophenyl ether] | 77 | 86 | 100 | 95 | Tolerance |  | 100 | 92 |  | 100 | 100 |  |  |  | Tolerance | Tolerance |  |
| COC(=O)C(C)Oc1cc(Oc2ccc(C(F)(F)F)cc2Cl)ccc1[N+](=O)[O-] (centres unmarked) [Example 50] | 100 | 97 | 100 | 83 | Tolerance |  | 98 | 90 |  | 100 | 100 |  |  | Tolerance |  | Tolerance |  |
| CNC(=O)C(C)Oc1cc(Oc2ccc(C(F)(F)F)cc2Cl)ccc1[N+](=O)[O-] (centres unmarked) [Example 52] | 93 | 87 | 75 | 67 | Tolerance |  | 98 | 79 | Tolerance | 100 | 100 |  |  |  | Tolerance | Tolerance | Tolerance |
| CC(Oc1cc(Oc2ccc(C(F)(F)F)cc2Cl)ccc1[N+](=O)[O-])C(=O)N(C)C (centres unmarked) [Example 53] | 81 | 79 | 100 | 83 | Tolerance | Tolerance | 98 | 98 |  | 100 | 100 | Tolerance |  |  | Tolerance | Tolerance |  |
| CCOc1cc(Oc2c(Cl)cc(C(F)(F)F)cc2Cl)ccc1[N+](=O)[O-] [Example 56, 2,6-Dichloro-α,α,α-trifluoro-p-tolyl-3-ethoxy-4-nitrophenyl ether] | 100 | 99 | 100 | 83 |  |  | 100 | 91 |  | 99 | 100 |  |  | Tolerance | Tolerance | Tolerance |  |
